Test results as given in patent US8974823B2, “Solid compositions of low-solubility drugs and poloxamers” (Bend Research, Inc., priority 2003, dated 2015).
Counter-ions that a name gives are not always drawn. Values belong to the molecule of their own block, whether it stands above or below them.

How the values were obtained:
[1] = Log P of the drug; conditions: octanol/water, Log P
Excerpt: A common measure of hydrophobicity is Log P, defined as the base 10 logarithm of the ratio of the drug solubility in octanol to the drug solubility in water. Log P may be measured experimentally or calculated using methods known in the art.

[2] = glass transition temperature (Tg) of the drug; format: physicochemical; conditions: Table B; unless noted Tg measured at less than 10% RH
Protocol: In a first aspect, the invention comprises a solid composition comprising a plurality of particles. The particles comprise a low-solubility drug and a poloxamer. The drug is in intimate contact with the poloxamer in the particles. Collectively, the drug and poloxamer constitute at least 50 wt % of the particles. At least a substantial portion of the drug in the composition is amorphous. The Tg of the drug is at least 50° C. Unless otherwise noted, as used herein the Tg refers to the Tg measured at less than 10% RH.
Such Tg values may represent that of drug dispersed in the amorphous portions of the poloxamer or the Tg of drug-rich phases or domains. […] The Tg of the drug may be at least about 60° C., at least about 70° C., or even at least about 80° C. The Tg of a drug can be determined using standard analytical techniques well known in the art, including by a dynamic mechanical analyzer (DMA), a dilatometer, a dielectric analyzer, and by differential scanning calorimetry (DSC).

[3] = in vitro dissolution test of Drug 1 compositions in Model Fasted Duodenal solution; format: physicochemical; conditions: for AUC: MFD solution; for AUC / Drug 1 Concentration: 2000 μg/mL if all dissolved; for Drug 1 Concentration: MFD solution pH 6.5, 37° C.
Protocol: (§1) The solid compositions of Examples 1-2 were evaluated in an in vitro dissolution test to ascertain concentration enhancement of Drug 1. A […] sample of each solid composition was added in duplicate to a microcentrifuge tube, so that the total concentration of Drug 1 would have been 2000 μg/mL if all of the drug had dissolved. The tubes were placed in a 37° C. temperature-controlled chamber, and 1.8 mL PBS containing 0.5 wt % sodium taurocholic acid and 1-palmitoyl-2-oleyl-sn-glycero-3-phosphocholine (NaTC/POPC, with a 4/1 weight ratio) at pH 6.5 and 290 mOsm/kg (simulating a Model Fasted Duodenal solution) was added to each respective tube. The samples were quickly mixed using a vortex mixer for about 60 seconds. The samples were centrifuged at 13,000 G at 37° C. for 1 minute. The resulting supernatant solution was then sampled and diluted 1:6 (by volume) with methanol and then analyzed by high-performance liquid chromatography (HPLC). The contents of each respective tube were mixed on a vortex mixer and allowed to stand undisturbed at 37° C. until the next sample was taken. Samples were collected at 4, 10, 20, 40, 90, and 1200 minutes.
As a control (C1), a sample of crystalline Drug 1 alone was tested in the same manner so that the concentration of Drug 1 in MFD solution would have been 2000 μg/mL if all of the drug had dissolved.
The concentrations of drug obtained in these samples were used to determine the maximum drug concentration (“MDC90”) and the area under the concentration-versus-time curve (“AUC90”) during the initial 90 minutes.

[4] = in vitro dissolution test of Drug 2 compositions in Model Fasted Duodenal solution; format: physicochemical; conditions: for AUC / Drug 2 Concentration: MFD solution, 200 μg/mL if all dissolved; for Drug 2 Concentration: 37° C.
Protocol: as §1
Examples 3-4 were tested by in vitro dissolution tests to ascertain concentration enhancement of Drug 2 as in Examples 1-2, except that a sufficient amount of material was added to the Model Fasted Duodenal solution to obtain a drug concentration of 200 μg/mL if all of the drug dissolved. As a control (C2), crystalline Drug 2 alone was used.
The concentrations of drug obtained in these samples were used to determine the MDC90 and the AUC90 during the initial 90 minutes.

[5] = in vitro dissolution test of Drug 3 compositions in PBS; format: physicochemical; conditions: for AUC / Drug 3 Concentration: 1000 μg/mL if all dissolved; for Drug 3 Concentration: 37° C.
[6] = in vitro dissolution test of Drug 5 particles in MFD solution; format: physicochemical; conditions: dose 120 μg/mL; for Drug 5 Concentration: 37° C.
[7] = as above; format: physicochemical; conditions: dose 120 μg/mL; for AUC / Drug 5 Concentration: MFD solution; for Drug 5 Concentration: 37° C.
Protocol: as §1
The so-formed particles were tested in vitro to ascertain concentration enhancement of Drug 5 as in Examples 1-2 at a dose of 120 μg/mL. Control C9 consisted of amorphous Drug 5 alone.
The concentration of drug obtained in these samples were used to determine the Cmax90 during the initial 90 minutes.

[8] = Drug 5, MFDS, initial 90 minutes

logP [1]: 7
Tg [2]: 135 °C
Compound: CCCc1nn(C)c2c(=O)[nH]c(-c3cc(S(=O)(=O)N4CCN(C)CC4)ccc3OCC)nc12 [1-[4-ethoxy-3-(6,7-dihydro-1-methyl-7-oxo-3-propyl-1H-pyrazolo[4,3-d]pyrimidin-5-yl)phenylsulphonyl]-4-methylpiperazine]

AUC90 ([3]; Drug 1, MFD, initial 90 minutes): 21,600 min * μg/mL
MDC90 ([3]; Drug 1, MFD, maximum drug concentration during initial 90 minutes): 255 µg/mL
AUC ([3]; Drug 1, time 0 min): 0 µg·min/mL
AUC ([3]; Drug 1, time 4 min): 400 µg·min/mL
AUC ([3]; Drug 1, time 10 min): 1700 µg·min/mL
AUC ([3]; Drug 1, time 20 min): 4100 µg·min/mL
AUC ([3]; Drug 1, time 40 min): 9000 µg·min/mL
AUC ([3]; Drug 1, time 90 min): 21,600 min * μg/mL
AUC ([3]; Drug 1, time 1200 min): 299,000 min * μg/mL
Drug 1 Concentration ([3]; time 0 min): 0 µg/mL
Drug 1 Concentration ([3]; time 4 min): 204 µg/mL
Drug 1 Concentration ([3]; time 10 min): 227 µg/mL
Drug 1 Concentration ([3]; time 20 min): 243 µg/mL
Drug 1 Concentration ([3]; time 40 min): 250 µg/mL
Drug 1 Concentration ([3]; time 90 min): 255 µg/mL
Drug 1 Concentration ([3]; time 1200 min): 244 µg/mL
Compound: O=C(N[C@@H](Cc1ccccc1)[C@@H](O)C(=O)N1C[C@@H](O)[C@@H](O)C1)c1cc2cc(Cl)ccc2[nH]1 [Example C1, 5-chloro-1H-indole-2-carboxylic acid [(1S)-benzyl-(2R)-hydroxy-3-((3R,4S)-dihydroxy-pyrrolidin-1-yl-)-3-oxypropyl]amide]

AUC90 ([4]; Drug 2, MFD, initial 90 minutes): 100 µg·min/mL
Cmax90 ([4]; Drug 2, MFD, initial 90 minutes (MDC90 in the text)): 1000 ng/mL
AUC ([4]; Drug 2, time 0 min): 0 µg·min/mL
AUC ([4]; Drug 2, time 4 min): 0 µg·min/mL
AUC ([4]; Drug 2, time 10 min): 0 µg·min/mL
AUC ([4]; Drug 2, time 20 min): 0 µg·min/mL
AUC ([4]; Drug 2, time 40 min): 0 µg·min/mL
AUC ([4]; Drug 2, time 90 min): 100 µg·min/mL
AUC ([4]; Drug 2, time 1200 min): 3400 µg·min/mL
Drug 2 Concentration ([4]; time 0 min): 0 µg/mL
Drug 2 Concentration ([4]; time 4 min): 1 µg/mL
Drug 2 Concentration ([4]; time 10 min): 1 µg/mL
Drug 2 Concentration ([4]; time 20 min): 0 µg/mL
Drug 2 Concentration ([4]; time 40 min): 0 µg/mL
Drug 2 Concentration ([4]; time 90 min): 1 µg/mL
Drug 2 Concentration ([4]; time 1200 min): 5 µg/mL
Compound: Cc1ncccc1CNC(=O)c1ccc2c(c1)CC[C@@H]1C[C@@](O)(CCC(F)(F)F)CC[C@@]21Cc1ccccc1 [Example C2, 2-phenanthrenecarboxamide,4b,5,6,7,8,8a,9,10-octahydro-7-hydroxy-N-[(2-methyl-3-pyridinyl)methyl]-4b-(phenylmethyl)-7-(3,3,3-trifluoropropyl)-, (4bS,7S,8aR)-]

Compound: Cc1c(O)cccc1C(=O)N[C@@H](CSc1ccccc1)[C@H](O)CN1C[C@H]2CCCC[C@H]2C[C@H]1C(=O)NC(C)(C)C [Example C3, nelfinavir mesylate]
AUC90 ([5]; Drug 3, initial 90 minutes): 400 µg·min/mL
Cmax90 ([5]; Drug 3, initial 90 minutes (MDC90 in the text)): 6000 ng/mL
AUC ([5]; Drug 3, time 0 min): 0 µg·min/mL
AUC ([5]; Drug 3, time 4 min): 0 µg·min/mL
AUC ([5]; Drug 3, time 10 min): 0 µg·min/mL
AUC ([5]; Drug 3, time 20 min): 100 µg·min/mL
AUC ([5]; Drug 3, time 40 min): 200 µg·min/mL
AUC ([5]; Drug 3, time 90 min): 400 µg·min/mL
AUC ([5]; Drug 3, time 1200 min): 5100 µg·min/mL
Drug 3 Concentration ([5]; time 0 min): 0 µg/mL
Drug 3 Concentration ([5]; time 4 min): 5 µg/mL
Drug 3 Concentration ([5]; time 10 min): 5 µg/mL
Drug 3 Concentration ([5]; time 20 min): 6 µg/mL
Drug 3 Concentration ([5]; time 40 min): 6 µg/mL
Drug 3 Concentration ([5]; time 90 min): 4 µg/mL
Drug 3 Concentration ([5]; time 1200 min): 5 µg/mL

AUC ([6]; Drug 5, time 0 min): 0 µg·min/mL
AUC ([6]; Drug 5, time 3.5 min): 5 µg·min/mL
AUC ([6]; Drug 5, time 7.25 min): 17 µg·min/mL
AUC ([6]; Drug 5, time 11 min): 34 µg·min/mL
AUC ([6]; Drug 5, time 20 min): 96 µg·min/mL
Drug 5 Concentration ([6]; time 3.5 min): 2.8 µg/mL
Drug 5 Concentration ([6]; time 7.25 min): 3.8 µg/mL
Drug 5 Concentration ([6]; time 11 min): 5.3 µg/mL
Drug 5 Concentration ([6]; time 20 min): 8.4 µg/mL
AUC90 [7, 8]: 1,400 min * μg/mL
Cmax90 [7, 8]: 29000 ng/mL
AUC ([7]; Drug 5, time 40 min): 330 µg·min/mL
AUC ([7]; Drug 5, time 90 min): 1,400 min * μg/mL
AUC ([7]; Drug 5, time 1200 min): 60,700 min * μg/mL
Drug 5 Concentration ([7]; time 0 min): 0 µg/mL
Drug 5 Concentration ([7]; time 40 min): 15 µg/mL
Drug 5 Concentration ([7]; time 90 min): 29 µg/mL
Drug 5 Concentration ([7]; time 1200 min): 78 µg/mL
Compound: CCc1cc(Oc2cccc(N(Cc3cccc(OC(F)(F)C(F)F)c3)C[C@@H](O)C(F)(F)F)c2)ccc1Cl [Example C9, (2R)-3-[[3-(4-chloro-3-ethylphenoxy)phenyl][[3-(1,1 ,2,2-tetrafluoroethoxy)phenyl]methyl]amino]-1,1,1-trifluoro-2-propanol]

logP [1]: 6.9
Compound: CC[C@@H]1C[C@H](N(Cc2cc(C(F)(F)F)cc(C(F)(F)F)c2)C(C)=O)c2cc(C(F)(F)F)ccc2N1C(=O)OC(C)C [[2R,4S] 4-[acetyl-(3,5-bis-trifluoromethyl-benzyl)-amino]-2-ethyl-6-trifluoromethyl-3,4-dihydro-2H-quinoline-1-carboxylic acid isopropyl ester]

logP [1]: 7
Compound: CCC(CC)Nc1cc(C)nc(Oc2c(C)cc(C)cc2C)c1C [[3,6-dimethyl-2-(2,4,6-trimethyl-phenoxy)-pyridin-4-yl]-(1-ethyl-propyl)-amine]
